From patent US20240246956A1, “CLASS IIA HISTONE DEACETYLASE (HDAC) DEGRADER LIGANDS AND METHODS OF USE THEREOF” (DANA-FARBER CANCER INSTITUTE, INC., priority 2021, published 2024)
pIC50: −log10 of the molar value.

Key:
[1] = molecular target: T1, HDAC9 (Homo sapiens, UniProt Q9UKV0); assay: In vitro HDAC enzymatic assay (Reaction Biology); assay type: biochemical; conditions: dose response, FIG. 2A-2B
T1 construct: purchased Reaction Biology (Devault, PA)

[2] = molecular target: T2, HDAC7 (Homo sapiens, UniProt Q8WUI4); assay: In vitro HDAC enzymatic assay (Reaction Biology); assay type: biochemical; parameters: purchased Reaction Biology (Devault, PA); conditions: dose response, FIG. 2A-2B
T2 sequence (Q8WUI4 1-952): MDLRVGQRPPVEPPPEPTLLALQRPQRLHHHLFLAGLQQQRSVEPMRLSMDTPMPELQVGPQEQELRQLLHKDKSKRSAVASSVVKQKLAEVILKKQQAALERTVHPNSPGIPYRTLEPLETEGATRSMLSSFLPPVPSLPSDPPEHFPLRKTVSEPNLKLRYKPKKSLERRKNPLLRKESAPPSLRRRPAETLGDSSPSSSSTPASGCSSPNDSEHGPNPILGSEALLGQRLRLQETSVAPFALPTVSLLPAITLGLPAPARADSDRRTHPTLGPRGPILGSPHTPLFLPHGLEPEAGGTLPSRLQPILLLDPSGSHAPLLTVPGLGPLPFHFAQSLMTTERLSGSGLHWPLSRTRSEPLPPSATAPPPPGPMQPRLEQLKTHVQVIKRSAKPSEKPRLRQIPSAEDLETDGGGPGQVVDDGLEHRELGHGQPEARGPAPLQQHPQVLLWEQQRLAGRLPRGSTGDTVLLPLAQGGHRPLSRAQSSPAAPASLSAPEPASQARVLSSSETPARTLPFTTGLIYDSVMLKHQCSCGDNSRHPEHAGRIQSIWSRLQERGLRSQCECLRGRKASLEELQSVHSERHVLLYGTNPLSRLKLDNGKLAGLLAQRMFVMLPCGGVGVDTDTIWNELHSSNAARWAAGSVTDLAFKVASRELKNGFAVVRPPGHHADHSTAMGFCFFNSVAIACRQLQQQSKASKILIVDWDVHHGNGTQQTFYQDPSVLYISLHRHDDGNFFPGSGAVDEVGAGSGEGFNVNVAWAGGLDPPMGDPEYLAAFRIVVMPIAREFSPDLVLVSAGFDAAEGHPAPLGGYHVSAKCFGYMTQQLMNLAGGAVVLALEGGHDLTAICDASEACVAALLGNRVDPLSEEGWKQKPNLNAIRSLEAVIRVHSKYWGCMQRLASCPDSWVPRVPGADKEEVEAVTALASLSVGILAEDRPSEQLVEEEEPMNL

[3] = molecular target: T3, CRBN (Homo sapiens, UniProt Q96SW2); assay: Cellular CRBN engagement assay (competition with dBET6, BRD4BD2-eGFP reporter); assay type: cell-based; conditions: FIG. 1; for cell permeability (from cellular CRBN engagement): Flp-In 293 reporter cells; for pIC50: competition with 100 nM dBET6, 5 h, Flp-In 293 cells expressing BRD4BD2-eGFP and mCherry
T3 construct: endogenous in cells; host or cells: Flp-In 293 cells stably expressing BRD4BD2-eGFP and mCherry
Description: BRD4BD2 was subcloned into mammalian pcDNA5/FRT Vector (Ampicillin and Hygromycin B resistant) modified to contain MCS-eGFP-P2A-mCherry. Stable cell lines expressing eGFP-protein fusion and mCherry reporter were generated using Flp-In™ 293 system. Plasmid (0.3 μg) and pOG44 (4.7 μg) DNA were preincubated in 100 μL of Opti-MEM™ I (Gibco™, Life Technologies™) media containing 0.05 mg/ml Lipofectamine 2000 (Invitrogen™) for 20 min and added to Flp-In™ 293 cells containing 1.9 ml of Dulbecco's Modified Eagle Medium (DMEM) media (Gibco™, Life Technologies™) per well in a 6-well plate format (Falcon, 353046). Cells were propagated after 48 h and transferred into a 10 cm^2 plate (Corning®, 430165) in DMEM media containing 50 μg/ml of Hygromycin B (Invitrogen™, REF 10687010) as a selection marker. Following 2-3 passage cycles, FACS (FACSAria™ II, BD) was used to enrich for cells expressing eGFP and mCherry.
Stable cells expressing the BRD4BD2-eGFP protein fusion and the mCherry reporter were seeded at a density of 1000-4000 cells/well in a 384-well plate with 50 μL per well of FluoroBrite™ DMEM media (Thermo Fisher Scientific, A18967) supplemented with 10% FBS a day before compound treatment. Compounds and 100 nM dBET6 were dispensed using a D300e Digital Dispenser (HP), normalized to 0.5% DMSO, and incubated with the cells for 5 h. The assay plate was imaged immediately using an acument High Content Imager (TTP Labtech) with 488 nm and 561 nm lasers in a […] grid per well format. The resulting images were analyzed using CellProfiler™ (Carpenter et al., Genome Biol. 7(10):R100 (2006)). A series of image analysis steps (an ‘image analysis pipeline’) was constructed. First, the red and green channels were aligned and cropped to target the middle of each well (to avoid analysis of the heavily clumped cells at the edges). A background illumination function was calculated for both red and green channels of each well individually and subtracted to correct for illumination variations across the 384-well plate from various sources of error. An additional step was then applied to the green channel to suppress the analysis of large auto fluorescent artifacts and enhance the analysis of cell specific fluorescence by way of selecting for objects under a given size (30 A.U.) and with a given shape (speckles). mCherry-positive cells were then identified in the red channel by filtering for objects 8-60 pixels in diameter and by using intensity to distinguish between clumped objects. […] The fraction of GFP-positive cells/mCherry-positive cells in each well was then calculated, and the green and red images were rescaled for visualization. […]

[4] = molecular target: HDAC4 (Homo sapiens, UniProt P56524); assay: In vitro HDAC enzymatic assay (Reaction Biology); assay type: biochemical; parameters: purchased Reaction Biology (Devault, PA); conditions: dose response, FIG. 2A-2B

O=C1CCC(N2C(=O)c3cccc(NCCCCCCN4CCC(CNC(=O)c5cccc(-c6noc(C(F)(F)F)n6)c5)(c5nc(-c6ccccc6)cs5)CC4)c3C2=O)C(=O)N1 (stereo not shown) [Compound 1]
inhibition of HDAC9 [1]: inhibited | inhibition of HDAC7 [2]: inhibited | cell permeability (from cellular CRBN engagement) [3]: cell permeable | pIC50 [3]: 6.85 | inhibition of HDAC4 [4]: inhibited

CCN(CCNc1cccc2c1C(=O)N(C1CCC(=O)NC1=O)C2=O)C[C@@H](C)NC(=O)c1ccc(-c2noc(C(F)(F)F)n2)cc1 (stereo partly drawn) [Compound 16, N-((2R)-1-((2-((2-(2,6-dioxopiperidin-3-yl)-1,3-dioxoisoindolin-4-yl)amino)ethyl)(ethyl)amino)propan-2-yl)-4-(5-(trifluoromethyl)-1,2,4-oxadiazol-3-yl)benzamide]
inhibition of HDAC9 [1]: inhibited | inhibition of HDAC7 [2]: inhibited | cell permeability (from cellular CRBN engagement) [3]: cell permeable | pIC50 [3]: 5.16 | inhibition of HDAC4 [4]: inhibited
